Measured values: BigSolDB 2.1

N#CCc1ccc([N+](=O)[O-])cc1
Details	solubility (mole fraction)
in 1,4-dioxane, 288.15 K	0.0461
in 1,4-dioxane, 293.15 K	0.0567
in 1,4-dioxane, 298.15 K	0.0715
in 1,4-dioxane, 303.15 K	0.0888
in 1,4-dioxane, 308.15 K	0.109
in 1,4-dioxane, 313.15 K	0.134
in 1,4-dioxane, 318.15 K	0.161
in 1,4-dioxane, 323.15 K	0.193
in 1,4-dioxane, 328.15 K	0.232
in 1,4-dioxane, 333.15 K	0.283
in 2-butanone, 278.15 K	0.0458
in 2-butanone, 283.15 K	0.0534
in 2-butanone, 288.15 K	0.0617
in 2-butanone, 293.15 K	0.0717
in 2-butanone, 298.15 K	0.0828
in 2-butanone, 303.15 K	0.0953
in 2-butanone, 308.15 K	0.109
in 2-butanone, 313.15 K	0.126
in 2-butanone, 318.15 K	0.144
in 2-butanone, 323.15 K	0.166
in 2-butanone, 328.15 K	0.189
in 2-butanone, 333.15 K	0.216
in acetic acid, 293.15 K	0.014
in acetic acid, 298.15 K	0.0166
in acetic acid, 303.15 K	0.0195
in acetic acid, 308.15 K	0.0231
in acetic acid, 313.15 K	0.0272
in acetic acid, 318.15 K	0.0319
in acetic acid, 323.15 K	0.0375
in acetic acid, 328.15 K	0.0438
in acetic acid, 333.15 K	0.0516
in acetone, 278.15 K	0.057
in acetone, 283.15 K	0.0658
in acetone, 288.15 K	0.0753
in acetone, 293.15 K	0.0859
in acetone, 298.15 K	0.0974
in acetone, 303.15 K	0.111
in acetone, 308.15 K	0.126
in acetone, 313.15 K	0.143
in acetone, 318.15 K	0.162
in acetone, 323.15 K	0.183
in acetone, 328.15 K	0.206
in acetonitrile, 278.15 K	0.0361
in acetonitrile, 283.15 K	0.0437
in acetonitrile, 288.15 K	0.0519
in acetonitrile, 293.15 K	0.0628
in acetonitrile, 298.15 K	0.0749
in acetonitrile, 303.15 K	0.0899
in acetonitrile, 308.15 K	0.105
in acetonitrile, 313.15 K	0.124
in acetonitrile, 318.15 K	0.145
in acetonitrile, 323.15 K	0.169
in acetonitrile, 328.15 K	0.196
in acetonitrile, 333.15 K	0.228
in cyclohexane, 283.15 K	9.17e-05
in cyclohexane, 288.15 K	0.000111
in cyclohexane, 293.15 K	0.000134
in cyclohexane, 298.15 K	0.000166
in cyclohexane, 303.15 K	0.000209
in cyclohexane, 308.15 K	0.000258
in cyclohexane, 313.15 K	0.000327
in cyclohexane, 318.15 K	0.000409
in cyclohexane, 323.15 K	0.000505
in cyclohexane, 328.15 K	0.000639
in cyclohexane, 333.15 K	0.000822
in ethanol, 278.15 K	0.00183
in ethanol, 283.15 K	0.00223
in ethanol, 288.15 K	0.00279
in ethanol, 293.15 K	0.00352
in ethanol, 298.15 K	0.0043
in ethanol, 303.15 K	0.00536
in ethanol, 308.15 K	0.00654
in ethanol, 313.15 K	0.00788
in ethanol, 318.15 K	0.00986
in ethanol, 323.15 K	0.0122
in ethanol, 328.15 K	0.0149
in ethanol, 333.15 K	0.0178
in ethyl acetate, 278.15 K	0.122
in ethyl acetate, 283.15 K	0.13
in ethyl acetate, 288.15 K	0.14
in ethyl acetate, 293.15 K	0.149
in ethyl acetate, 298.15 K	0.159
in ethyl acetate, 303.15 K	0.17
in ethyl acetate, 308.15 K	0.182
in ethyl acetate, 313.15 K	0.196
in ethyl acetate, 318.15 K	0.21
in ethyl acetate, 323.15 K	0.228
in ethyl acetate, 328.15 K	0.246
in ethyl acetate, 333.15 K	0.268
in ethylbenzene, 278.15 K	0.00564
in ethylbenzene, 283.15 K	0.00685
in ethylbenzene, 288.15 K	0.00784
in ethylbenzene, 293.15 K	0.00969
in ethylbenzene, 298.15 K	0.0118
in ethylbenzene, 303.15 K	0.0135
in ethylbenzene, 308.15 K	0.0163
in ethylbenzene, 313.15 K	0.0201
in ethylbenzene, 318.15 K	0.0238
in ethylbenzene, 323.15 K	0.0284
in ethylbenzene, 328.15 K	0.0343
in ethylbenzene, 333.15 K	0.0446
in isobutanol, 278.15 K	0.000842
in isobutanol, 283.15 K	0.00108
in isobutanol, 288.15 K	0.00139
in isobutanol, 293.15 K	0.00178
in isobutanol, 298.15 K	0.00229
in isobutanol, 303.15 K	0.00299
in isobutanol, 308.15 K	0.00383
in isobutanol, 313.15 K	0.00492
in isobutanol, 318.15 K	0.0063
in isobutanol, 323.15 K	0.00806
in isobutanol, 328.15 K	0.0102
in isobutanol, 333.15 K	0.0129
in isopropanol, 278.15 K	0.000901
in isopropanol, 283.15 K	0.00119
in isopropanol, 288.15 K	0.00153
in isopropanol, 293.15 K	0.00193
in isopropanol, 298.15 K	0.00252
in isopropanol, 303.15 K	0.00332
in isopropanol, 308.15 K	0.00424
in isopropanol, 313.15 K	0.00535
in isopropanol, 318.15 K	0.00683
in isopropanol, 323.15 K	0.00864
in isopropanol, 328.15 K	0.011
in isopropanol, 333.15 K	0.0138
in methanol, 278.15 K	0.00237
in methanol, 283.15 K	0.00274
in methanol, 288.15 K	0.00336
in methanol, 293.15 K	0.0043
in methanol, 298.15 K	0.00547
in methanol, 303.15 K	0.00695
in methanol, 308.15 K	0.00865
in methanol, 313.15 K	0.011
in methanol, 318.15 K	0.0136
in methanol, 323.15 K	0.017
in methanol, 328.15 K	0.0212
in methanol, 333.15 K	0.0262
in n-butanol, 278.15 K	0.00128
in n-butanol, 283.15 K	0.00147
in n-butanol, 288.15 K	0.0019
in n-butanol, 293.15 K	0.00241
in n-butanol, 298.15 K	0.00306
in n-butanol, 303.15 K	0.00388
in n-butanol, 308.15 K	0.00501
in n-butanol, 313.15 K	0.00643
in n-butanol, 318.15 K	0.00807
in n-butanol, 323.15 K	0.0102
in n-butanol, 328.15 K	0.0129
in n-butanol, 333.15 K	0.0159
in n-propanol, 278.15 K	0.00133
in n-propanol, 283.15 K	0.00165
in n-propanol, 288.15 K	0.00204
in n-propanol, 293.15 K	0.0026
in n-propanol, 298.15 K	0.00332
in n-propanol, 303.15 K	0.0042
in n-propanol, 308.15 K	0.00526
in n-propanol, 313.15 K	0.00673
in n-propanol, 318.15 K	0.00847
in n-propanol, 323.15 K	0.0107
in n-propanol, 328.15 K	0.0135
in n-propanol, 333.15 K	0.017
in toluene, 278.15 K	0.00791
in toluene, 283.15 K	0.00966
in toluene, 288.15 K	0.0117
in toluene, 293.15 K	0.0148
in toluene, 298.15 K	0.0177
in toluene, 303.15 K	0.0208
in toluene, 308.15 K	0.0252
in toluene, 313.15 K	0.0298
in toluene, 318.15 K	0.0354
in toluene, 323.15 K	0.0432
in toluene, 328.15 K	0.053
in toluene, 333.15 K	0.0657
in water, 278.15 K	1.5e-05
in water, 283.15 K	1.94e-05
in water, 288.15 K	2.48e-05
in water, 293.15 K	2.98e-05
in water, 298.15 K	3.55e-05
in water, 303.15 K	4.27e-05
in water, 308.15 K	5.2e-05
in water, 313.15 K	6.4e-05
in water, 318.15 K	7.89e-05
in water, 323.15 K	9.63e-05
in water, 328.15 K	0.000117
in water, 333.15 K	0.000142
